Test results: US6827926B2, “Metallotetrapyrrolic photosensitizing agents for use in photodynamic therapy” (Miravant Pharmaceuticals, Inc., priority 2001, dated 2004)
Like-named read-outs stand apart in the source and are kept apart here.

Key:
[1] = tested on: normal skin of CD Hairless male rats; type: in vivo, rat; settings: rat, in vivo
From the text: We tested metallo- and metal-free tetrapyrroles systemically (see following section) for normal skin response in relation to the pharmacodynamic distribution of the photosensitizers in CD hairless rats. The skin of CD hairless rats are poorly developed, often referred to as hyperkeratotic, with various sized cystic hair follicles containing concentric lamellar accumulations of keratinaceous material, which are often associated with enlarged sebaceous glands. It quickly became apparent that gallium tetrapyrroles induced a marked clearing of the hyperkeratotic lesions in the treatment areas on the hairless rats. In fact, this clearing could be induced without necrosis of the skin. No other metallotetrapyrrole type produced such effects. This observation led us to assess the metallotetrapyrrolic compounds for skin restructuring effects both topically and systemically and for their ability to reduce hair growth in the following animal models.
Photosensitizer normal skin response as well as skin healing response, was evaluated using CD Hairless male rats. Photosensitizers were administered in an liposomal egg yolk phospholipid formulation at 1, 1.5 and 2 μmol/kg body weight formulation per dose group as a single bolus intravenous injection given through a marginal tail vein using a 27 gauge needle and a 1 cc tuberculin syringe. Normal skin responses were evaluated by irradiating several spots on the skin of the rat with a 532 nm laser (150 mW/cm^2, 150J, 1 cm diameter) at 1, 6, 24, 48, and 96 hrs post injection. Normal skin responses were evaluated and documented. The time at which the last spot is observed at the concentration injected is reported in the far right hand column in Tables 3, 4, 5 and 6. Skin samples were taken for histological evaluation at days 1, 10, 20 and 22 post light treatment. Rats were housed under normal lighting and all study procedures involving the test article were conducted under light filtered through blue and green Roscolox light filters to prevent photoactivation or degradation of the drug.

[2] = tested on: V79 (Chinese Hamster Lung Fibroblasts) cells; assay: In vitro cytotoxicity assay (light EC50, Alamar blue); type: cell-based
Description: The in vitro biological evaluation of photosensitizers for their ability to photosensitize cells was performed using standard procedures. Using 5% FBS/DMEM phenol-free media, wells (180 μl/well) were plated with 5×10^4 V79 (Chinese Hamster Lung Fibroblasts) cells/ml into two 96 well plates. Plate 1 was light-treated and plate 2 served as a control. The plates were Incubated at 37° C., 5% CO2 for 3-5 hours. Standard solutions of the photosensitizers were dissolved in pre-filtered Dimethyl Sulfoxide (DMSO). Drug was diluted in 5% FBS DMEM phenol free medium. Final drug concentrations for light and dark experiments were 0.01, 0.1, 1.0, 3.0 and 5.0 μM. Twenty microliters of each concentration were added to six replicate wells to the light and dark plate. The plates were wrapped in aluminum foil to avoid photoactivation and mixed in a gyratory shaker for approximately 2 minutes. Both plates were incubated for 24 hours at 37° C., 5% CO2. After a 24 hour incubation, drug-containing media was aspirated from the plates. Each well was rinsed with 180 μl Hepes buffer salt solution (HBSS) then aspirated to remove the HBSS. 180 μl of fresh media were added (5% FBS/DMEM phenol-free) to each well. […] Plate 2 was not light treated. Immediately after light treatment, 20 μl Alamar blue was added to each well in plate 1. Alamar blue was added to plate 2 immediately after fresh media was added. The plates were mixed on a gyratory shaker for 5 min.
Both plates were incubated under dark conditions for 24 hours at 37° C., 5% CO2. After 24 hour incubation, the plates were read on a plate reader spectrophotometer (Spectra Max 250) at wavelengths 570 and 600 nm. and the percentage of cell survival recorded.

[3] = tested on: normal uninjured rat carotid arteries (medial and adventitial cell populations); assay: In vivo rat carotid artery acellularity after PDT; set-up: species or system Sprague Dawley rats; settings: for Max % rat Artery Accelularity: Table 3, 50 J/cm^2, 3 days post treatment; for efficacy of free base porphyrins in the arterial rat model: at the time point, drug and light dose parameters used
Description: The acute effects of metallated photosensitizers, in response to light activation, to cause depletion of cell populations in the medial and adventitial layers of vessels was measured in normal uninjured rat carotid arteries. […] Shortly before the light treatment, the rats were anaesthetized with 3.5% isoflurane (Abbott Laboratories, IL, USA) and the femoral region of the right leg was shaved and cleaned. […] A direct arteriotomy was performed and a light balloon catheter ([…] Medical Technologies, Inc) was introduced into the vessel and advanced retrogradely into a non-manipulated region of the left common carotid artery via the abdominal aorta. […] After light treatment and removal of the catheter, the right femoral artery was tied off and the skin wound was closed. Rats were sacrificed three days post treatment as this corresponds to the known peak time that vascular cells, e.g., VSMC and myofibroblasts, proliferate and migrate in response to an injury. The area spanning both left and right carotid arteries and surrounding tissue was harvested, fixed, embedded in paraffin and sectioned. The tissues were stained with Hematoxylin and Eosin (Fisher Scientific, PA) and examined by light microscopy to histologically assess the cell population density in the medial and adventitial layers of the PDT-treated vessel wall. […] Metallo azaporphyrins with Ga, Zn, Al, Sn were excited at 575 nm, while Pt azaporphyrins were excited at 532 nm.

[4] = Table 3 porphyrins, 24 h drug incubation, 532 nm, 1.25 J/cm^2, read-out: In Vitro EC50 Light
[5] = light EC50, metallodiazaporphyrins, read-out: In Vitro EC(50)
[6] = Table 4 azaporphyrins, 575 nm (Pt azaporphyrins 532 nm), 1.25 J/cm^2, read-out: In Vitro EC(50)

`COC(=O)CCC1=C(C)c2cc3[n-]c(cc4nc(cc5[n-]c(cc1n2)c(CCC(=O)OC)c5C)C(C)=C4C=CCN(C)C)c(C)c3C=CCN(C)C.[Ga+3].[OH-]` [Example 43, Gallium Hydroxy 3,8-Bis-(N,N-dimethylaminoprop-2-en-3-yl)deuteroporphyrin dimethyl ester] was tested, and the “Normal skin Response (1 μmol) in hrs” value [1] was “None” and the EC50 [2, 4] was 2.45 µM.
In the case of `CCOC(=O)CCCCC1=C(C)c2cc3[nH]c(cc4nc(cc5[nH]c(cc1n2)c(CCCCC(=O)OCC)c5C)C(C)=C4CC)c(C)c3CC.[Pt]` [Example 53, Platinum 8,13-diethyl-3,7,12,17-tetramethylporphyrin-2,18-di(pentanoic acid ethyl ester)], the “Max % rat Artery Accelularity” value ([3]; drug dose 1 μMol) is reported as 20% and the EC50 [2, 4] is reported as 0.1 µM.
`CCC1=C(C)C2=[N+]3C1=Cc1c(C)c(CC)c4[n]1[Al-2]31([Cl])[n]3c(c(C)c(CCCO)c3=CC3=[N+]1C(=C4)C(C)=C3CCCO)=C2` [Example 73, Aluminum Chloride 8,13-diethyl-3,7,12,17-tetramethylporphyrin-2,18-di(3′-hydroxypropyl)] was tested, and the “Max % rat Artery Accelularity” value ([3]; drug dose 1 μMol) was 0% and the EC50 [2, 4] was 3.6 µM.
With `CCC1=C(C)c2cc3[n-]c(cc4nc(cc5[n-]c(cc1n2)c(C)c5CC)C(C)=C4CCCN(CC)CC)c(CCCN(CC)CC)c3C.[Zn+2]` [Example 79, Zinc 8,13-diethyl-3,7,12,17 tetramethylporphyrin-2,18-di((N,N-diethyl)-3-aminopropyl)] the “Normal skin Response (1 μmol) in hrs” value [1] was “None”.
For `CCC1=C(CC)C2=[N+]3C1=Nc1c(CC)c(CC)c4[n]1[Pt-2]31[n]3c(c(C)c(CCC(=O)[O-])c3=CC3=[N+]1C(=C4)C(C)=C3CCC(=O)[O-])=C2.[K+].[K+]` (stereo not shown) [Example 86, Platinum 7,8,12,13-tetraethyl-12,17-dimethyl-10-azaporphyrin-2,18-di(propionic acid Potassium Salt)], the “Normal skin Response (1 μmol)” value [1] was 96 h.
`CCC1=C(C)c2cc3[n-]c(cc4nc(cc5[n-]c(cc1n2)c(C)c5CC)C(C)=C4CCC(=O)[O-])c(CCC(=O)[O-])c3C.[In+3].[Na+].[Na+].[OH-]` [Example 110, Indium Hydroxy Mesoporphyrin Disodium Salt] was tested, and the “Max % rat Artery Accelularity” value ([3]; drug dose 1 μMol) was 0% and the EC50 [2, 4] was 1 µM.
`CCC1=C(C)C2=Cc3c(CC)c(C)c4[n]3[Pt][n]3c(c(C)c(CCC(=O)[O-])c3=CC3=NC(=C4)C(C)=C3CCC(=O)[O-])=CC1=N2.[Na+].[Na+]` [Example 111, Platinum Mesoporphyrin Disodium Salt] was tested, and the “Max % rat Artery Accelularity” value ([3]; drug dose 1 μMol) was 0% and the EC50 [2, 4] was 0.7 µM.
For `C=CC1=C(C)c2cc3[n-]c(cc4nc(cc5[n-]c(cc1n2)c(C)c5CCC(=O)[O-])C(CCC(=O)[O-])=C4C)c(C)c3C=C.[In+3].[Na+].[Na+].[OH-]` [Example 112, Indium Hydroxy Protoporphyrin Disodium Salt], the “Max % rat Artery Accelularity” value ([3]; drug dose 1 μMol) was 0% and the EC50 [2, 4] was 1.5 µM.
For `CC1=C(CCC(=O)[O-])c2cc3[n-]c(cc4nc(cc5[n-]c(cc1n2)c(CCC(=O)[O-])c5C)C(C)=C4CCC(=O)[O-])c(CCC(=O)[O-])c3C.[In+3].[Na+].[Na+].[Na+].[Na+].[OH-]` [Example 113, Indium Hydroxy Coproporphyrin III Tetra Sodium Salt], the “Max % rat Artery Accelularity” value ([3]; drug dose 1 μMol) was 0% and the EC50 [2, 4] was 3.6 µM.
Work on `CCC1=C(CC)C2=[N+]3C1=Nc1c(CC)c(CC)c4[n]1[Pt-2]31[n]3c(c(CC)c(CC)c3=C2c2ccc(OC)cc2)=NC2=[N+]1C(=C4c1ccc(OC)cc1)C(CC)=C2CC` (stereo not shown) [M=Pt, R1=Et, R2=Et, R3=p-(C6H4)OCH3] yielded an EC50 [2, 5] of 0.3 µM.
In the case of `CCC1=C(C)c2cc3[nH]c(cc4nc(cc5[nH]c(cc1n2)c(C)c5CCC(=O)OC)C(CCC(=O)OC)=C4C)c(C)c3CC` [mesoporphyrin dimethyl ester, reference compound], the “efficacy of free base porphyrins in the arterial rat model” value (“efficacy of free base porphyrins” for short) [3] is reported as “poor efficacy”.
For `CCC1=C(C)c2cc3[nH]c(cc4nc(cc5[nH]c(cc1n2)c(C)c5CC)C(C)=C4CCCC(=O)OC)c(CCCC(=O)OC)c3C` [metal-free analog of compound 26, 8,13-diethyl-3,7,12,17-tetramethylporphyrin-2,18-di(butanoic acid methyl ester)], the “efficacy of free base porphyrins” value [3] was “poor efficacy”.
`CCOC(=O)CCCCC1=C(C)c2cc3[nH]c(cc4nc(cc5[nH]c(cc1n2)c(CCCCC(=O)OCC)c5C)C(CC)=C4C)c(CC)c3C` [metal-free analog of compound 28, 8,13-diethyl-3,7,12,17-tetramethylporphyrin-2,18-di(pentanoic acid ethyl ester)] was tested, and the “efficacy of free base porphyrins” value [3] was “poor efficacy”.
In the case of “Aluminum Chloride 8,13-diethyl-3,7,12,17-tetramethylporphyrin-2,18-di(butanoic acid methyl ester) [Example 48]”, the “Max % rat Artery Accelularity” value ([3]; drug dose 1 μMol) is reported as 0% and the EC50 [2, 4] is reported as 4 µM.
Work on “Gallium Chloride 3,7,14,17-tetramethyl-5,10-diazaporphyrin-2,8,12,18-tetra (3′-hydroxypropyl) [Example 118]” yielded an EC50 [2, 5] of 0.3 µM.
“Gallium Chloride 3,7,14,17-tetramethyl-5,10-diazaporphyrin-2,8,12,18-tetra propionic acid [Example 117]” was tested, and the EC50 [2, 5] was 0.6 µM.
For “Gallium Chloride 7,8,12,13-tetraethyl-12,17-dimethyl-10-azaporphyrin-2,18-di(3′-hydroxypropyl) [Example 23]”, the “Max % Rat Artery Accelularity” value ([3]; Table 4, drug dose 1 μMol, 575 nm (Pt 532 nm)) was 50% and the EC50 [2, 6] was 0.05 µM.
“Gallium Chloride 7,8,12,13-tetraethyl-12,17-dimethyl-10-azaporphyrin-2,18-di(propionic acid-2′-N,N-dimethylaminoethyl amide) [Example 102]” showed an EC50 [2, 6] of 1.2 µM.
“Gallium Chloride 7,8,12,13-tetraethyl-12,17-dimethyl-10-azaporphyrin-2,18-di(propionic acid-3′-hydroxypropyl amide) [Example 97]” gave an EC50 [2, 6] of 1.7 µM.
For “Gallium Chloride 8,13-diethyl-3,7,12,17-tetramethylporphyrin-2,18-di(butanoic acid methyl ester) [Example 26]”, the “Max % rat Artery Accelularity” value ([3]; drug dose 1 μMol) was 75% and the EC50 [2, 4] was 0.37 µM.
“Platinum 3,7,14,17-tetramethyl-5,10-diazaporphyrin-2,8,12,18-tetra(3′-hydroxypropyl) [Example 120]” gave an EC50 [2, 5] of 0.06 µM.
In the case of “Platinum 3,7,14,17-tetramethyl-5,10-diazaporphyrin-2,8,12,18-tetra(propionic acid methyl ester [Example 119]”, the EC50 [2, 5] is reported as 0.35 µM.
In the case of “Zinc 8,13-diethyl-3,7,12,17-tetramethylporphyrin-2,18-di(butanoic acid methyl ester) [Example 49]”, the “Max % rat Artery Accelularity” value ([3]; drug dose 1 μMol) is reported as 0% and the EC50 [2, 4] is reported as 4 µM.
